The values below are quoted from earlier work in PMC11768433 (Viruses, 2024).

For orientation: inhibition means the relative decrease from the control value, in per cent. What is called IC90 is the concentration needed for an effect of 90%. For orientation: EC90 means the point of the concentration-response curve where the effect stands at 90%.

Read-outs that look alike come from different tables or passages of the source.

The test system of series [1] is Human endocervical cells End1/E6E7. Further details: method as in Ref.26026377. The settings on record: ref Ref.26026377.
The test system of the next series is P4-CCR5 cells. The arrangement: method as in Ref.15780876. As to conditions: ref Ref.15780876.
The test system of another series is MT-4 cell. Further details: method as in Ref.30089693. As to conditions: ref Ref.30089693.
The next series concerns TZM-bl cell. The arrangement: method as in Ref.30089693. The settings on record: ref Ref.30089693.
Another series relates to H9 cells. The arrangement: method as in Ref.12480936. The settings on record: up to 50 μM, ref Ref.12480936.
In the next series the test system is HSV. Further details: method as in Ref.35663971. As to conditions: Huh7 cells, at 10 μM, ref Ref.35663971.
In series [2] the test system is SARS-CoV-2. The arrangement: method as in Ref.35663971. The settings on record: SARS-CoV-2, Huh7 cells, at 10 μM; ref Ref.35663971.
In a further series the test system is Dengue virus 2(DENV2). Further details: method as in Ref.35663971. The settings on record: DENV2, Huh7 cells, at 10 μM; ref Ref.35663971.
A further series relates to Vero E6 cells. The arrangement: method as in Ref.35663971. The settings on record: ref Ref.35663971.
The next series concerns Huh7.5.1 cells. Further details: method as in Ref.22378192. The settings on record: ref Ref.22378192.
The subject of series [3] is Vero cells. Further details: method as in Ref.35055066. The settings on record: ref Ref.35055066.
Series [4] deals with Vero cells. The arrangement: method as in Ref.18572274. As to conditions: up to 500 μM, ref Ref.18572274.
The next series relates to MDCK cells. The arrangement: method as in Ref.17005658. As to conditions: up to 50μM, ref Ref.17005658.
Series [5] deals with Human parainfluenza viruse 3(HPIV 3). The arrangement: method as in Ref.28344321. As to conditions: HPIV 3 infection, Vero cells; ref Ref.28344321.
Series [6] deals with Vero cells. The arrangement: method as in Ref.28344321. As to conditions: ref Ref.28344321.
The next series has as its system Huh-7 cells. Further details: method as in Ref.20156485. The settings on record: ref Ref.20156485.
In a further series the test system is hepatitis C virus(HCVpp). Further details: method as in Ref.20156485. The settings on record: Huh-7 human hepatoma cells, ref Ref.20156485.
A further series concerns TZM-bl cells. Further details: method as in Ref.30867304. As to conditions: ref Ref.30867304.
For the next series, the system named is U937 cells. The arrangement: method as in Ref.30867304. As to conditions: U937 cells (cell text ends after μ); ref Ref.30867304.
A further series relates to Human PBMC. The arrangement: method as in Ref.30867304. The settings on record: ref Ref.30867304.
The subject of another series is C8166 cells. Further details: method as in Ref.30867304. As to conditions: ref Ref.30867304.
A further series has as its system MT-4 cells. Further details: method as in Ref.30867304. As to conditions: ref Ref.30867304.
The test system of another series is HPIV-3. The arrangement: method as in Ref.35216177. As to conditions: HPIV-3 replication, Vero cells; ref Ref.35216177.
A further series deals with HSV-1. Further details: method as in Ref.35216177. As to conditions: HSV-1 replication, Vero cells; ref Ref.35216177.
A further series relates to HCoV-OC43. The arrangement: method as in Ref.35216177. The settings on record: HCoV-OC43 replication, Vero cells; ref Ref.35216177.
A further series deals with HSV-2. The arrangement: method as in Ref.35216177. The settings on record: HSV-2 replication, Vero cells; ref Ref.35216177.
The subject of another series is HCoV-229E. Further details: method as in Ref.35216177. The settings on record: HCoV-229E replication, Vero cells; ref Ref.35216177.
The test system of series [7] is SARS-CoV-2. Further details: method as in Ref.35216177. The settings on record: SARS-CoV-2 replication, Vero cells; ref Ref.35216177.
For series [8], the system named is Vero cells. Further details: method as in Ref.35216177. As to conditions: ref Ref.35216177.
The next series deals with HIV-1. The arrangement: method as in Ref.12054767. As to conditions: up to 100 μM; ref Ref.12054767.
In another series the test system is P4 cells. Further details: method as in Ref.12054767. The settings on record: MTT assay, peptide concentrations higher than 100 μM, ref Ref.12054767.
Series [9] has as its system Herpes simplex virus type 1(HSV-1). Further details: method as in Ref.18572274. As to conditions: HSV-1 entry, Vero cells, at 250μM; ref Ref.18572274.

As to “GLFSVLGAVAKHVLPHVVPVIAEKL [DRAVPe00355, DRAVP database peptide, target HIV]”, the “concentration at 50% cell death” value in series [1] was 10 µM.

Take “ALWMTLLKKVLKAAAKAALNAVLVGANA [DRAVPe01956, DRAVP database peptide, target HIV]”: the CC50 with P4-CCR5 cells is 5.6 µM.

As to IEELIKKSEEQQKKNEEELKKLEX [DRAVPe00656], the CC50 was 46.43 µM with PBMC (PBMC, ref Ref.30089693); 164.47 µM in the series with MT-4 cell; 193.63 µM with TZM-bl cell.

Consider “LPLPAPSFHRTT [DRAVPe00128, DRAVP database peptide, target HIV-1 Vif proteins]”, for which the “cytotoxicity” value in the series on H9 cells was “[Ref.12480936]No significant cytotoxicity on H9 cells up to 50 μM”.

With “MGRFKRFRKKFKKLFKKLS [DRAVPe01948, DRAVP database peptide bomidin]”, the inhibition was 50% in the series on HSV, 80% with SARS-CoV-2 [2] and 50% in the series with Dengue virus 2(DENV2). Moreover, the CC50 with Vero E6 cells was 169.6 µM.

Regarding “KPKQIKPPLPSV [DRAVPe00130, DRAVP database peptide, target HIV-1 Vif proteins]”, in the series with H9 cells, the “cytotoxicity” value is “[Ref.12480936]No significant cytotoxicity on H9 cells up to 50 μM”.

For the substance “SNQGGSPLPRSV [DRAVPe00127, DRAVP database peptide, target HIV-1 Vif proteins]”, the “cytotoxicity” value in the series on H9 cells is “[Ref.12480936]No significant cytotoxicity on H9 cells up to 50 μM”.

As for “GLLSVLGSVVKHVIPHVVPVIAEHL [DRAVPe00360, DRAVP database peptide, target HIV]”, in [1], the “concentration at 50% cell death” value is listed as 12.5 µM.

“MANAGLQLLGFILAFLGW [DRAVPe01317, DRAVP database peptide, target HCV]”: the CC50 with Huh7.5.1 cells is reported as ~200 Μm.

As for “GLFKVLGSVAKHLLPHVAPVIAEKL [DRAVPe00356, DRAVP database peptide, target HIV]”, in series [1], the “concentration at 50% cell death” value is 12.5 µM.

For the substance “YTSLIHSLIEESQNQQEKNEQELLELDX [DRAVPe00782]”, the CC50 with PBMC (PBMC, ref Ref.30089693) was 212.6 µM; in the series on MT-4 cell it was 366.3 µM; with TZM-bl cell, 800.8 µM.

Regarding “AIGSILGALAKGLPTLISWIKNR [DRAVPe00469, DRAVP database peptide AR-23]”, the CC50 in the series with Vero cells [3] was 25 µM.

Regarding GLASTLTRWAHYNALIRAF [DRAVPe01424], in the series on Vero cells [4], the “cytotoxicity” value is “[Ref.18572274]No cytotoxicity against Vero cells up to 500 μM”.

With “YTSLIEELIKKSEEQQKKNEEELKKLEX [DRAVPe00783]”, the CC50 with PBMC was 40.01 µM; with MT-4 cell, 138.37 µM; in the series with TZM-bl cell, 106.4 µM.

Turning to RRKKAAVALLPAVLLALLAP [DRAVPe01891], in the series with MDCK cells, the “cytotoxicity” value was “[Ref.17005658]No cytotoxicity against MDCK cells up to 50μM”.

Consider “VALDPIDIAnti-SIVLNKAKSDLEESKEWIRRSNGKLDSIGSGSGX [DRAVPe01793]”, for which the IC90 in [5] is 0.0007 ± 7e-06 µM. Further, the CC50 with Vero cells [6] is 4.5 µM.

“AAHLIDALYAEFLGGRVLTTPVVHRALFYASAVLRQPFLAGVPSA [DRAVPe01422]”: in the series on Vero cells [4], the “cytotoxicity” value was “[Ref.18572274]No cytotoxicity against Vero cells up to 500 μM”.

Take VSFAIKWEYVLLLFLL [DRAVPe01483]: in the series with Huh-7 cells, the “cytotoxicity” value is “[Ref.20156485]No cytotoxicity against Huh-7 cells”. For the same substance, the EC90 in the series with hepatitis C virus(HCVpp) was 14 ± 12 µM.

On to “WEQKIEELLKKAEEQQKKNEEELKKLEKX [DRAVPe00787]”, for which the CC50 in the series with TZM-bl cells is 12.34 µM; in the series with U937 cells, 9.97 μ; in the series on Human PBMC, 40.27 µM; in the series on C8166 cells, 19.19 µM; in the series with MT-4 cells, 19.65 µM.

Turning to “ALWKTLLKKVLKAAAK [DRAVPe01957, DRAVP database peptide, target HIV]”, the CC50 result with P4-CCR5 cells is “[Ref.15780876]P4-CCR5 cells:CC50>100 μM”.

For the substance “FVPWFSKFlKRIL [DRAVPe00383, DRAVP database entry, TL peptide]”, the IC90 in the series with HPIV-3 was greater than 50 µM; with HSV-1, 10.5 µM; with HCoV-OC43 it was 16.3 µM; in the series with HSV-2, 7.99 µM; in the series on HCoV-229E it was 50 µM; with SARS-CoV-2 [7], 12.9 µM. For the same substance, in the series on Vero cells [8], the CC50 was 22.32 µM.

For “QLLIRMI [DRAVPe00092, DRAVP database peptide, target HIV-1 integrase]”, in the series on HIV-1, the “inhibition of HIV-1 infection” value is “no inhibition”. Also, the “decrease of cell viability” value with P4 cells is roughly 5%.

Turning to “FVPWFSKFlkRIL [DRAVPe00384, DRAVP database entry, TL peptide]”, the IC90 in the series with HPIV-3 was greater than 50 µM; with HSV-1, 12.7 µM; in the series with HCoV-OC43 it was 29.2 µM; in the series with HSV-2, 12.5 µM; with HCoV-229E, 50 µM; in the series with SARS-CoV-2 [7] it was 25.3 µM. Moreover, the CC50 with Vero cells [8] was 45.92 µM.

Consider AAHLIDALYAEFLGGRVLTT [DRAVPe01423], for which the “cytotoxicity” value in the series on Vero cells [4] was “[Ref.18572274]No cytotoxicity against Vero cells up to 500 μM”. For the same substance, in series [9], the inhibition was 60%.
